Where two headings read alike, the source gives them in different places.
Key:
[1] = Daily steady-state exposure (AUC24,ss) in a Phase 2b clinical study; assay type: in vivo; conditions: human, plasma, oral, 1500 mg, 1500 mg BID treatment arm
Experimental: In addition, predicted daily steady-state exposures (AUC24,ss) for doses of 500 mg BID, 1500 mg QD, and 1000 mg BID in T2DM subjects with CKD stage 3B or 4 in a Phase 1b study were estimated using parameters from the population PK model; the mean AUC24,ss values and standard deviations are shown in FIG. 10. For reference, the mean AUC24,ss and standard deviation from a Phase 2b clinical study is also included in FIG. 10; the mean AUC24,ss in the 1500 mg BID treatment arm in that study was 36.5 μg·hr/mL (the AUC24,ss range was 10.1 to 169.3 μg·hr/mL). At each of the three dose levels, significant overlap in exposure between T2DM subjects with CKD3B and T2DM subjects with CKD4 was predicted as evidenced by the overlap of standard deviation bars between CKD3B and CKD4 subjects at each dose level.

[2] = tested on: Japanese patients with type 2 diabetes (T2DM); assay: 24-week Phase III placebo-controlled monotherapy study in Japanese patients with type 2 diabetes; assay type: in vivo, human; conditions: for HbA1c LSM Difference vs. Placebo, Week 24 / Change in HbA1c from baseline, Week 24 LS Mean (SE) / HbA1c LSM Difference vs. Placebo (SE), Week 24: 1000 mg BID
Experimental: A 24-Week Phase III, Randomized, Double-Blind, Placebo-Controlled, Monotherapy Study to Assess the Efficacy, Safety and Tolerability of Imeglimin Administered Orally in Japanese Patients with Type 2 Diabetes (T2DM)
A total of 213 subjects were randomized in a 1:1 ratio to receive either imeglimin (1000 mg BID) or placebo BID for 24 weeks, with 194 subjects completing the study without Investigational Medicinal Product (IMP) discontinuation. The primary objective of this study was to determine the change in HbA1c from baseline after 24 weeks of imeglimin treatment compared to placebo. Secondary endpoints of the trial included fasting plasma glucose along with other standard glycemic and non-glycemic parameters. Subjects were to have an eGFR of ≥50 mL/min/1.73 m^2 at Screening and ≥45 mL/min/1.73 m^2 at Pre-randomization.

[3] = tested on: subjects with T2DMs; assay: Earlier studies in subjects with T2DM for up to 24 weeks (monotherapy, add on to metformin and sitagliptin); assay type: in vivo, human
[4] = tested on: subjects with T2DM; assay: 24-week Phase IIb dose-ranging placebo-controlled study in subjects with T2DM; assay type: in vivo, human; conditions: for Mean HbA1c Change from Baseline: Week 24, T2D and Stage 2 and 3a CKD
Experimental: A 24-Week, Phase IIb, Dose-Ranging, Randomized, Double-blind, Placebo-controlled, Parallel-group Safety and Efficacy Study in Subjects with T2DM
The five parallel groups included 4 groups of imeglimin doses (500, 1000, 1500, or 2000 mg twice daily) and 1 placebo group. The primary endpoint was to assess the dose-response in T2D subjects, using change in HbA1c from baseline to week 24 as the primary evaluation criterion. Subjects could be either treatment naïve or treated with any oral antidiabetic monotherapy and were to have an eGFR of ≥50 mL/min/1.73 m^2. A total of 382 subjects were randomized 1:1:1:1:1 to one of the 5 study arms, with 315 subjects completing the study.

[5] = tested on: acute renal failure (ARF) rat model; conditions: for plasma glucose: normal rats
Experimental: The creatinine level, correlated with the degree of the renal function failure, was tested for each rat 7 days after the first injection of gentamicin. […] The creatinine level was determined on the Monarch Chemistry Systems using the IL Test creatinine in rat plasma samples. This monochromatic analysis is based on the formation of a red colored complex between creatinine and picric acid under alkaline conditions.

C[C@H]1N=C(N(C)C)N=C(N)N1 [imeglimin, (6R)—N^2, N^2,6-trimethyl-3,6-dihydro-1,3,5-triazine-2,4-diamine]
AUC ([1]; read-out: AUC24,ss range): 10100 to 169000 ng·h/mL | AUC ([1]; read-out: mean AUC24,ss): 36500 ng·h/mL | HbA1c LSM Difference vs. Placebo, Week 24 ([2]; CKD Stage 2 (eGFR = 60-90 mL/min/1.73 m^2)): −0.96% | Change in HbA1c from baseline, Week 24 LS Mean (SE) ([2]; CKD Stage 2 (eGFR = 60-90 mL/min/1.73 m^2), N 66): −0.82 (0.08) % | HbA1c LSM Difference vs. Placebo, Week 24 ([2]; CKD Stage 2 (eGFR = 60-90 mL/min/1.73 m^2), listed as Imeglimin): −0.96 (0.11) % | HbA1c LSM Difference vs. Placebo, Week 24 ([2]; CKD Stage 3a (eGFR < 60 mL/min/1.73 m^2)): −0.70% | Change in HbA1c from baseline, Week 24 LS Mean (SE) ([2]; CKD Stage 3a (eGFR < 60 mL/min/1.73 m^2), N 21): −0.66 (0.13) % | HbA1c LSM Difference vs. Placebo, Week 24 ([2]; CKD Stage 3a (eGFR < 60 mL/min/1.73 m^2), listed as Imeglimin): −0.70 (0.19) % | HbA1c LSM Difference vs. Placebo (SE), Week 24 ([2]; Normal eGFR (eGFR > 90 mL/min/1.73 m^2)): −0.59% | Change in HbA1c from baseline, Week 24 LS Mean (SE) ([2]; Normal eGFR (eGFR > 90 mL/min/1.73 m^2), N 11): −0.33 (0.20) % | HbA1c LSM Difference vs. Placebo (SE), Week 24 ([2]; Normal eGFR (eGFR > 90 mL/min/1.73 m^2), listed as Imeglimin): −0.59 (0.32) % | A1C lowering compared to placebo ([2]; pre-specified analysis, stage 2 and 3a CKD (eGFR <90 mL/min/1.73 m^2, n=178)): improvement in A1C lowering as compared to placebo | tolerability / safety profile [3]: well-tolerated with a safety profile comparable to that of placebo | Mean HbA1c Change from Baseline ([4]; 500 mg BID (n = 44)): 0.007% | Mean HbA1c Change from Baseline ([4]; 1000 mg BID (n = 43)): −0.072% | Mean HbA1c Change from Baseline ([4]; 1500 mg BID (n = 41)): −0.502% | Mean HbA1c Change from Baseline ([4]; 2000 mg BID (n = 42)): −0.193% | HbA1c lowering compared to placebo ([4]; post-hoc analysis, stage 2 and 3a CKD (eGFR <90 mL/min/1.73 m^2, n=211)): improvement in HbA1c lowering as compared to placebo | plasma glucose ([5]; 180 minutes, imeglimin and metformin 100 mg/h/kg, phenformin 50 mg/h/kg i.v.): 5.4 ± 0.4 mmol/L | plasma glucose ([5]; i.v. perfusion 100 mg/h/kg, 60 minutes (basal 7.6±0.4)): 6.5 ± 0.4 mmol/L | effect on plasma [HCO3−] ([5]; rat, in vivo): significantly decreased plasma [HCO3^−]vs. basal period but not vs. control group | effect on plasma lactate ([5]; rat, in vivo): did not significantly increase plasma lactate | effect on plasma lactate level ([5]; rat, in vivo): did not change plasma lactate level | plasma H+ concentration / metabolic acidosis signs ([5]; rat, in vivo): Metabolic acidosis signs with imeglimin treatment were not observed | plasma accumulation ([5]; rat, in vivo): plasma accumulation of metformin and imeglimin was observed | severe hypoglycemia ([5]; rat, in vivo): severe hypoglycemia was not observed | decrease in plasma glucose ([5]; rats with mild or high ARF): significant and time-dependent
